Data: patent US6262230A, “Analogs of thymosin α1” (SciClone Pharmaceuticals Inc., priority 1994, dated 2001)
Values joined by “and” are separate entries in the source; they are usually repeats but may differ in a detail not shown here. Equal entries are not always repeated.

Tested on: endotoxic mice (lipopolysaccharide endotoxin from E. coli at 60 mg/kg)
Test: Survival of endotoxic mice following lethal endotoxin dose
Format: in vivo, Swiss-Webster mice
Conditions: endotoxin 60 mg/kg, 3 injections of 100 μg peptide at 5 minutes, 2 and 4 hours post endotoxin, alive at 0 hr: 10 (Tα1-N16-NH2 groups), 8 ([Glp]-Tα1, Tα1-Gly-NH2); for Number of Mice Alive Following Lethal Endotoxin Dose, 24 hr: endotoxin alone 4 of 10; for Number of Mice Alive Following Lethal Endotoxin Dose, 48 hr / Number of Mice Alive Following Lethal Endotoxin Dose, 72 hr / Number of Mice Alive Following Lethal Endotoxin Dose, 4 days / Number of Mice Alive Following Lethal Endotoxin Dose, 5 days: endotoxin alone 3 of 10
Method: Swiss-Webster mice were treated in five groups: endotoxic mice (mice injected with lipopolysaccharide endotoxin from E. coli at 60 mg/kg) which were otherwise untreated, and endotoxic mice treated with 3 injections of 100 μg Thymosin α1 -N16 Amide (Tα1 -N16 -NH2) treated in two groups, Pyroglutamyl-desacetyl Thymosin α1 ([glp]-Tα1), or Thymosin α1 -Gly Amide (Tα1 -gly-NH2) at 5 minutes, 2 and 4 hours post administration of the endotoxin.

Row | Substance | Number of Mice Alive Following Lethal Endotoxin Dose, 24 hr | Number of Mice Alive Following Lethal Endotoxin Dose, 48 hr | Number of Mice Alive Following Lethal Endotoxin Dose, 72 hr | Number of Mice Alive Following Lethal Endotoxin Dose, 4 days | Number of Mice Alive Following Lethal Endotoxin Dose, 5 days
1 | Ac-Ser-Asp-Ala-Ala-Val-Asp-Thr-Ser-Ser-Glu-Ile-Thr-Thr-Lys-Asp-Leu-Lys-Glu- Lys-Lys-Glu-Val-Val-Glu-Glu-Ala-Glu-Asn-Gly-NH2 (Ac-SDAAVDTSSEITTKDLKEKKEVVEEAENG-NH2) [Tα1 -Gly-NH2] | 8 | 8 | 8 | 8 | 8
2 | Ac-Ser-Asp-Ala-Ala-Val-Asp-Thr-Ser-Ser-Glu-Ile-Thr-Thr-Lys-Asp-Leu-NH2 (Ac-SDAAVDTSSEITTKDL-NH2) [Tα1 -N16 --NH2] | 5 and 8 | 4 and 8 | 4 and 7 | 4 and 7 | 4 and 7
